In US10828316B2, “Method of treating bacterial infections” (priority 2016, dated 2020):

Experiments:
Assay in all cases: MIC
K. pneumoniae EN0463 = type: cell-based, Klebsiella pneumoniae
E. coli EN012 = type: cell-based, Escherichia coli
K. oxytoca EN0392 = type: cell-based, Klebsiella oxytoca
K. pneumoniae EN0006 = type: cell-based
E. coli EN002 = type: cell-based, Escherichia coli
[1] = test system: Helicobacter pylori ATTC43504; type: cell-based
Text: (§1) Inhibition of Heliobacter is important in view of increasing resistance and its association to gastric cancer.

[2] = test system: Helicobacter pylori APV00918; type: cell-based; conditions: in FdUrd+trimethoprim+uridine combination
Text: as §1

S. flexneri APV00907 = type: cell-based; conditions: S. flexneri APV00907
E. coli B EN0458 = type: cell-based, Escherichia coli B
A. baumannii EN0007 = type: cell-based, A. baumanii
S. sonnei APV00908 = type: cell-based; conditions: S. sonnei APV00908
E. coli EN001 = type: cell-based, Escherichia coli
K. pneumoniae EN0233 = type: cell-based
A. baumannii EN017 = type: cell-based, Acinetobacter baumannii
P. aeruginosa EN015 = type: cell-based, Pseudomonas aeruginosa; note: test concentration or dose not given here
S. flexneri APV00906 = type: cell-based; conditions: S. flexneri APV00906
K. pneumoniae EN0401 = type: cell-based
K. pneumoniae EN010 = type: cell-based, Klebsiella pneumoniae
E. aerogenes EN0461 = type: cell-based, Enterobacter aerogenes
K. pneumoniae EN006 = type: cell-based, Klebsiella pneumoniae
P. aeruginosa EN0004 = type: cell-based
E. coli EN0001 = type: cell-based
E. coli EN013 = type: cell-based, Escherichia coli
S. typhimurium EN0466 = type: cell-based, Salmonella typhimurium
K. pneumoniae EN011 = type: cell-based, Klebsiella pneumoniae; note: test concentration or dose not given here
S. epidermidis EN0456 = type: cell-based, Staphylococcus epidermidis
K. pneumoniae EN0436 = type: cell-based
K. pneumoniae EN0262 = type: cell-based; conditions: in FdUrd+trimethoprim+uridine combination
K. pneumoniae EN0244 = type: cell-based; conditions: in FdUrd+trimethoprim+uridine combination
K. pneumoniae EN0437 = type: cell-based; conditions: in FdUrd+trimethoprim+uridine combination
E. coli EN0139 = type: cell-based; conditions: in FdUrd+trimethoprim+uridine combination
P. aeruginosa EN005 = type: cell-based, Pseudomonas aeruginosa; conditions: in FdUrd+trimethoprim+uridine combination
K. pneumoniae EN0249 = type: cell-based; conditions: in FdUrd+trimethoprim+uridine combination
P. aeruginosa EN004 = type: cell-based, Pseudomonas aeruginosa; conditions: in FdUrd+trimethoprim+uridine combination
P. aeruginosa EN0459 = type: cell-based, Pseudomonas aeruginosa; conditions: in FdUrd+trimethoprim+uridine combination
E. coli EN0135 = type: cell-based; conditions: in FdUrd+trimethoprim+uridine combination
A. baumannii EN007 = type: cell-based, Acinetobacter baumannii; conditions: in FdUrd+trimethoprim+uridine combination
K. pneumoniae EN0143 = type: cell-based; conditions: in FdUrd+trimethoprim+uridine combination
P. aeruginosa EN0460 = type: cell-based, Pseudomonas aeruginosa; conditions: in FdUrd+trimethoprim+uridine combination
[3] = Combination 1 (AZT+trimethoprim+uridine)
[4] = Combination 2 (same mixed with thymidine)
[5] = in FdUrd+trimethoprim+uridine combination
[6] = in didanosine+trimethoprim+uridine combination
[7] = in AZT+trimethoprim+uridine combination

Compound `COc1cc(Cc2cnc(N)nc2N)cc(OC)c1OC` [Trimethoprim, trimethoprim] has an MIC (K. pneumoniae EN0463; [3]) of 0.125 µg/mL, an MIC (K. pneumoniae EN0463; [4]) of 0.25 µg/mL and an MIC (E. coli EN012; [5]) of 0.064 µg/mL. For the same compound, the MIC (E. coli EN012; [6]) was 0.125 µg/mL, the MIC (K. oxytoca EN0392; [3]) was 0.064 µg/mL and the MIC (K. oxytoca EN0392; [5]) was 0.25 µg/mL. The MIC (K. pneumoniae EN0006; [7]) was 0.25 µg/mL, the MIC (K. pneumoniae EN0006; [5]) was 1 µg/mL and the MIC (K. pneumoniae EN0006; [6]) was 1 µg/mL. The MIC (E. coli EN002; [4]) was 0.125 µg/mL, the MIC (E. coli EN002; [5]) was 0.064 µg/mL and the MIC (E. coli EN002; [6]) was 0.064 µg/mL. For the same compound, the MIC [1, 7] was 0.125 µg/mL, the MIC [1, 5] was 0.125 µg/mL and the MIC [2] was 0.125 µg/mL. For the same compound, the MIC (S. flexneri APV00907; [7]) was 2 µg/mL, the MIC (S. flexneri APV00907; [5]) was greater than 8 µg/mL and the MIC (E. coli B EN0458; [5]) was 0.064 µg/mL. For the same compound, the MIC (E. coli B EN0458; [6]) was 0.064 µg/mL, the MIC (A. baumannii EN0007; [7]) was greater than 4 µg/mL and the MIC (A. baumannii EN0007; [5]) was greater than 8 µg/mL. For the same compound, the MIC (A. baumannii EN0007; [6]) was greater than 8 µg/mL, the MIC (S. sonnei APV00908; [7]) was 0.03 µg/mL and the MIC (S. sonnei APV00908; [5]) was greater than 8 µg/mL. For the same compound, the MIC (E. coli EN001; [3]) was 0.064 µg/mL, the MIC (E. coli EN001; [5]) was 0.25 µg/mL and the MIC (E. coli EN001; [6]) was 0.25 µg/mL. It also gave an MIC (K. pneumoniae EN0233; [7]) of 0.25 µg/mL, an MIC (A. baumannii EN017; Acinetobacter baumannii, EN017, A. baumannii EN017, Combination 1 (AZT+trimethoprim+uridine)) of 1 µg/mL and an MIC (A. baumannii EN017; Acinetobacter baumannii, EN017, A. baumannii EN017, Combination 2 (same mixed with thymidine)) of 1 µg/mL. For the same compound, the MIC (A. baumannii EN017; Acinetobacter baumannii, EN017, A. baumannii EN017, in AZT+trimethoprim+uridine combination) was 1 µg/mL, the MIC (A. baumannii EN017; Acinetobacter baumannii, EN017, A. baumannii EN017, in FdUrd+trimethoprim+uridine combination) was 1 µg/mL and the MIC (A. baumannii EN017; Acinetobacter baumannii, EN017, A. baumannii EN017, in didanosine+trimethoprim+uridine combination) was 2 µg/mL. It also gave an MIC (P. aeruginosa EN015; Pseudomonas aeruginosa, EN015, P. aeruginosa EN015, Combination 1 (AZT+trimethoprim+uridine)) of 2 µg/mL, an MIC (P. aeruginosa EN015; Pseudomonas aeruginosa, EN015, P. aeruginosa EN015, Combination 2 (same mixed with thymidine)) of 2 µg/mL and an MIC (P. aeruginosa EN015; Pseudomonas aeruginosa, EN015, P. aeruginosa EN015, in AZT+trimethoprim+uridine combination) of 2 µg/mL. The MIC (P. aeruginosa EN015; Pseudomonas aeruginosa, EN015, P. aeruginosa EN015, in FdUrd+trimethoprim+uridine combination) was 2 µg/mL, the MIC (P. aeruginosa EN015; Pseudomonas aeruginosa, EN015, P. aeruginosa EN015, in didanosine+trimethoprim+uridine combination) was 2 µg/mL and the MIC (S. flexneri APV00906; [7]) was 1 µg/mL. For the same compound, the MIC (S. flexneri APV00906; [5]) was greater than 8 µg/mL, the MIC (K. pneumoniae EN0401; [5]) was greater than 8 µg/mL and the MIC (K. pneumoniae EN0401; [6]) was greater than 8 µg/mL. The MIC (K. pneumoniae EN010; [3]) was 0.25 µg/mL, the MIC (E. aerogenes EN0461; [3]) was 0.25 µg/mL and the MIC (E. aerogenes EN0461; [7]) was 0.25 µg/mL. The MIC (K. pneumoniae EN006; [3]) was 0.125 µg/mL, the MIC (P. aeruginosa EN0004; [7]) was greater than 4 µg/mL and the MIC (P. aeruginosa EN0004; [5]) was greater than 8 µg/mL. The MIC (P. aeruginosa EN0004; [6]) was greater than 8 µg/mL, the MIC (E. coli EN0001; [7]) was 0.125 µg/mL and the MIC (E. coli EN0001; [5]) was 0.5 µg/mL. For the same compound, the MIC (E. coli EN0001; [6]) was 0.5 µg/mL, the MIC (E. coli EN013; Escherichia coli, EN013, E. coli EN013, Combination 1 (AZT+trimethoprim+uridine)) was less than 0.008 µg/mL and the MIC (E. coli EN013; Escherichia coli, EN013, E. coli EN013, Combination 2 (same mixed with thymidine)) was less than 0.008 µg/mL. For the same compound, the MIC (E. coli EN013; Escherichia coli, EN013, E. coli EN013, in AZT+trimethoprim+uridine combination) was less than 0.008 µg/mL, the MIC (E. coli EN013; Escherichia coli, EN013, E. coli EN013, in FdUrd+trimethoprim+uridine combination) was 0.032 µg/mL and the MIC (E. coli EN013; Escherichia coli, EN013, E. coli EN013, in didanosine+trimethoprim+uridine combination) was 0.032 µg/mL. For the same compound, the MIC (S. typhimurium EN0466; [3]) was 0.064 µg/mL, the MIC (S. typhimurium EN0466; [5]) was 0.25 µg/mL and the MIC (K. pneumoniae EN011; Klebsiella pneumoniae, EN011, K. pneumoniae EN011, Combination 1 (AZT+trimethoprim+uridine)) was 0.032 µg/mL. For the same compound, the MIC (K. pneumoniae EN011; Klebsiella pneumoniae, EN011, K. pneumoniae EN011, Combination 2 (same mixed with thymidine)) was 0.25 µg/mL, the MIC (K. pneumoniae EN011; Klebsiella pneumoniae, EN011, K. pneumoniae EN011, in AZT+trimethoprim+uridine combination) was 0.125 µg/mL and the MIC (K. pneumoniae EN011; Klebsiella pneumoniae, EN011, K. pneumoniae EN011, in FdUrd+trimethoprim+uridine combination) was 0.125 µg/mL. It also gave an MIC (K. pneumoniae EN011; Klebsiella pneumoniae, EN011, K. pneumoniae EN011, in didanosine+trimethoprim+uridine combination) of 0.25 µg/mL, an MIC (S. epidermidis EN0456; [3]) of 0.064 µg/mL and an MIC (S. epidermidis EN0456; [6]) of 0.125 µg/mL. The MIC (K. pneumoniae EN0436; [7]) was 0.125 µg/mL.
`O=c1[nH]c(=O)n([C@H]2C[C@H](O)[C@@H](CO)O2)cc1F` [FdUrd] gave an MIC (K. pneumoniae EN0262) of 2 µg/mL, an MIC (K. pneumoniae EN0244) greater than 4 µg/mL and an MIC (K. pneumoniae EN0463; [5]) of 0.25 µg/mL. The MIC (E. coli EN012; [5]) was 0.032 µg/mL, the MIC (K. oxytoca EN0392; [5]) was 0.125 µg/mL and the MIC (K. pneumoniae EN0006; [5]) was 0.5 µg/mL. It also gave an MIC (K. pneumoniae EN0437) greater than 4 µg/mL, an MIC (E. coli EN002; [5]) of 0.032 µg/mL and an MIC (E. coli EN0139) of 0.5 µg/mL. The MIC (P. aeruginosa EN005) was 0.25 µg/mL, the MIC [1, 5] was 0.06 µg/mL and the MIC [2] was 0.06 µg/mL. For the same compound, the MIC (S. flexneri APV00907; [5]) was greater than 4 µg/mL, the MIC (E. coli B EN0458; [5]) was 0.032 µg/mL and the MIC (A. baumannii EN0007; [5]) was greater than 4 µg/mL. For the same compound, the MIC (S. sonnei APV00908; [5]) was greater than 4 µg/mL, the MIC (E. coli EN001; [5]) was 0.125 µg/mL and the MIC (K. pneumoniae EN0249) was greater than 4 µg/mL. It also gave an MIC (P. aeruginosa EN004) greater than 4 µg/mL, an MIC (P. aeruginosa EN0459) greater than 4 µg/mL and an MIC (K. pneumoniae EN0233; [5]) of 0.5 µg/mL. For the same compound, the MIC (E. coli EN0135) was 0.25 µg/mL, the MIC (A. baumannii EN017; A. baumannii EN017, in FdUrd+trimethoprim+uridine combination) was 0.5 µg/mL and the MIC (P. aeruginosa EN015; P. aeruginosa EN015, in FdUrd+trimethoprim+uridine combination) was 1 µg/mL. The MIC (S. flexneri APV00906; [5]) was greater than 4 µg/mL, the MIC (A. baumannii EN007) was greater than 4 µg/mL and the MIC (K. pneumoniae EN0401; [5]) was greater than 4 µg/mL. The MIC (K. pneumoniae EN010; [5]) was 0.5 µg/mL, the MIC (E. aerogenes EN0461; [5]) was 1 µg/mL and the MIC (K. pneumoniae EN006; [5]) was 0.5 µg/mL. The MIC (P. aeruginosa EN0004; [5]) was greater than 4 µg/mL, the MIC (E. coli EN0001; [5]) was 0.25 µg/mL and the MIC (E. coli EN013; E. coli EN013, in FdUrd+trimethoprim+uridine combination) was 0.016 µg/mL. The MIC (S. typhimurium EN0466; [5]) was 0.125 µg/mL, the MIC (K. pneumoniae EN011; K. pneumoniae EN011, in FdUrd+trimethoprim+uridine combination) was 0.064 µg/mL and the MIC (K. pneumoniae EN0143) was greater than 4 µg/mL. For the same compound, the MIC (S. epidermidis EN0456; [5]) was less than 0.008 µg/mL, the MIC (K. pneumoniae EN0436; [5]) was 0.25 µg/mL and the MIC (P. aeruginosa EN0460) was greater than 4 µg/mL.
